Measurements from PMC9144276, “In Vitro and In Silico Evaluation of Cholinesterase Inhibition by Alkaloids Obtained from Branches of Abuta panurensis Eichler” (Molecules, 2022).
Read-outs that look alike come from different tables or passages of the source.

Target: T1, acetylcholinesterase enzyme from an electric ray Tetronarce californica (Tetronarce californica, UniProt P04058)
T1 construct: purchased Sigma-Aldrich
Experiment: Acetylcholinesterase inhibition assay (Ellman method, 96-well microplates)
Assay type: biochemical
Settings: for inhibition percentage toward the AChE enzyme: concentration not given
Procedure: An acetylcholinesterase enzyme from an electric ray Tetronarce californica (Sigma-Aldrich, St. Louis, MO, USA) was used for the experiments. The in vitro AChE inhibition assay was performed in 96-well microplates according to the methodology proposed by Ellman et al. and Senol et al. with some modifications. The alkaloid fraction and alkaloids were tested at concentrations of 2.8; 5.6; 11.2; 22.5; 45.0 and 90.0 µg/mL. Initially, 20 µL of each sample from the stock solution (1 mg/mL) were added and serial dilutions were performed. Then, 150 µL of a sodium phosphate buffer pH = 8 ([…]), 20 µL of 5,5’-dithio-bis(2- nitrobenzoic)acid (DTNB, 0.0025 M), and 20 µL of the acetylcholinesterase enzyme (1 U/mL) were added subsequently to each well at 25 °C and left for 15 min. The reaction was initiated by the addition of 10 µL of […] (AChI) (0.1 M). Neostigmine (0.28–9.0 μg/mL) was used as a positive control.
A thiocholine formed by the enzymatic hydrolysis of the AChI, reacts with the DTNB giving rise to a yellow 5-mercapto-2-nitrobenzoate anion. Concentration of the latter in each well was measured as absorbance at 405 nm by using a 96-well microplate reader ELx800^TM (Bio Tek Instruments, Inc., Winooski, VT, USA). The transformation was monitored for 30 min at 5-min intervals. The inhibition curve was plotted as the inhibition percent vs. concentration. All assays were performed in triplicate. Statistical analysis was performed with GraphPad Prism 7.0® software.

[1] = TcAChE, Ellman, 25 °C, pH 8, triplicate, read-out: IC50 for the acetylcholinesterase (AChE) inhibition assay

T1 sequence (P04058 22-586): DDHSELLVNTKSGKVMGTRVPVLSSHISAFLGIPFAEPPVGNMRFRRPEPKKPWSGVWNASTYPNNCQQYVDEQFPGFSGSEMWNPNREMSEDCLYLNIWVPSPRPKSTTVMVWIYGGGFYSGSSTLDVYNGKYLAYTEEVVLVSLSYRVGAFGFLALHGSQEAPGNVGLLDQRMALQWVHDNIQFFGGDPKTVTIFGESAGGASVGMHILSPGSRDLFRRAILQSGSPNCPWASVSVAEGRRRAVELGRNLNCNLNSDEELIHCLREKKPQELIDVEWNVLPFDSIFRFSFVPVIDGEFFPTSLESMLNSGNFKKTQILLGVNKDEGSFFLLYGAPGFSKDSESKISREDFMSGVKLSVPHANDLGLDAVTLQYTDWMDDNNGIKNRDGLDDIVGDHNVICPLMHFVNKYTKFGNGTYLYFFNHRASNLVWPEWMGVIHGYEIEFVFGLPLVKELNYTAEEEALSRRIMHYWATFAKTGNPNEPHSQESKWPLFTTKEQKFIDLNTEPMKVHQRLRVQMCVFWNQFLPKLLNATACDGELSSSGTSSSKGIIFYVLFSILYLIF

Row | Structure (SMILES) | IC50 [1] [µM] | inhibition percentage toward the AChE enzyme (TcAChE) | IC50 [µM]
1 | COc1cc2c(cc1O)C(Cc1ccc(O)c(Oc3cc4c(cc3OC)CCNC4Cc3ccc(O)cc3)c1)NCC2 (single isomer, unassigned) [lindoldhamine isomer 1, Lindoldhamine isomer] | 39.38 ± 0.08 | above 70% | –
2 | CN(CCCCNC(=O)/C=C/c1ccccc1)CCCNC(=O)/C=C/c1ccccc1 [5-N-methylmaytenine 4, 5-N-methylmaytenine] | – | above 70% | 19.55 ± 0.09
3 | CN(C)C(=O)Oc1cccc([N+](C)(C)C)c1 [neostigmine, reference compound] | 3.72 ± 0.03 | above 70% | –
4 | COc1cc2c(cc1OC)-c1cc3ccc(OC)c(OC)c3c[n+]1CC2 [palmatine 3, palmatine] | 35.25 ± 0.04 | above 70% | –
5 | COc1cc2c3c(c1OC)C1(C=CC(=O)C=C1)CC3NCC2 (stereo not shown) [stepharine 2, stepharine] | 61.24 ± 0.03 | above 70% | –
